pIC50: −log10 of the molar value. Several values for one entry are separate records, joined by “and”; a condition that tells them apart may be missing. Equal values may be shown once. Entries after “also recorded” stand apart in the source; their conditions may differ.
How the values were obtained:
HEK293 cells = test: Wound healing (cell migration) assay, HEK293 cells; assay type: cell-based, human
Method: (§1) Cells were seeded in 96 IncuCyte® ImageLock plates (20×10^3 cells per well) for 24 hours, to a near confluency of 95%, before the addition of increasing concentrations of compound. After a further 24 hours, wells were scratched using the IncuCyte® 96-well WoundMaker Tool, and the cells cultured for an additional 48 hours using the IncuCyte® S3 Live-Cell Analysis System (Essen BioScience). The plate was imaged at increments of 120 minutes for a period of 48 hours, and then analyzed for relative wound healing.

[1] = system: Kras protein in H1299 cells; test: Western blot of Kras protein in H1299 cells; assay type: cell-based, human; details: H1299, 10 and 20 μM 7773, 48 hours
Method: Western blots were performed as previously described. For fluorescent westerns, cell lysates were prepared with phosphatase inhibitors (β-Glycerophosphate and Sodium orthovanadate) and a protease inhibitor (cOmplete™, Mini Protease Inhibitor Cocktail, Roche 04693124001), membranes were read using a Li-Core Odyssey laser scanner, and results analyzed using Image Studio Lite software.
The following primary antibodies were used: mouse anti-total ERK (p44/42 MAPK (Erk1/2) L34F12 Cell Signaling 4696s), mouse anti-Kras (CPTC-KRAS4B-2, DSHB) rabbit anti-dpERK, (p44/42 MAPK, Cell Signaling 4370), rabbit anti-alpha/beta tubulin (Cell Signaling 2148), goat anti-rabbit IgG-HRP (Jackson), goat anti-mouse IgG-HRP (Jackson). Secondary antibodies for fluorescent westerns: donkey anti-mouse 800 (Rockland 610-732-124), goat anti-rabbit 680 (Molecular Probes A21076).

[2] = target: T1, Igf2bp1 binding to Kras 6 RNA (Homo sapiens, UniProt Q9NZI8); test: Fluorescence polarization (FP) assay of Igf2bp1 binding to fluorescent Kras 6 RNA; details: FP dose response; read-out: IC50 for inhibition of Igf2bp1 binding to Kras 6 RNA
T1 construct: Recombinant full-length Igf2bp1 protein; made in house; host or cells: E. coli BL21(DE3)
Method: For the small molecule screen, compounds were obtained from the collection maintained at the Grand Israel National Center for Personalized Medicine, consisting of molecules purchased from commercial vendors. Labelled RNA (10 nM) was incubated with recombinant Igf2bp1 protein (400 nM) in FAM-RNA buffer (10 mM Tris pH 8.0, 75 mM KCl, 0.5 mM EDTA, 1 mM DTT, 0.0188 U/μL RNAsin, 0.0005 μg/mL heparin, 0.0001 μg/μL tRNA, 0.01% Triton X-100, 3 mM MgCl2, 0.05% IGEPAL) at room temperature for 15 min. […] of this reaction mix was aliquoted with GNF WDII (USA) into wells of 1536 well plates, with a final concentration of […] compound or DMSO. The plates were spun down and read in a BMG Pherastar FS (Germany) plate reader plate reader, in FP mode with a 485/520/520 polarization filter, calibrated to 35 mP for free fluorescein with similar total intensity as experimental samples. […]
To determine the quality of the inventors screening assay, the Z′ factor for each plate was calculated with a Z′ factor greater than 0.5 indicating a robust assay suitable for high throughput screening. Compounds that altered the overall fluorescence intensity compared to controls were considered auto florescence and excluded from further analysis. […] Any small molecule that causes a change of more than three standard deviations from the mean is determined appropriate for further investigation.

H1299 cells [3] = test: Wound healing (cell migration) assay, H1299 cells; assay type: cell-based, human
Method: as §1

[4] = system: Igf2bp1 split-luciferase reporter in RKO cells; test: Split-luciferase assay of Igf2bp1 dimerization in RKO cells; assay type: cell-based; parameters: dose or concentration left out as unconfirmed
Method: Vectors expressing different fragments of split luciferase reporters with flexible linker were procured from Addgene (catalog #58786, 58787, 58788 and 58789). The vectors were digested with EcoRI and XhoI. EcoRI and XhoI restriction enzyme sites were added to 5′ and 3′ ends of the coding region of IGF2BP1 respectively using PCR. The inventors constructed four split luciferase reporter vectors by cloning IGF2BP1 in different orientation with the luciferase fragments (FIG. 8B). Primers used for the amplification of IGF2BP1 were: […]
The RKO cells were seeded in DMEM with 10% calf serum 24 hrs prior to the transfection. Transfection was done using Lipofectamine 2000 with reporter plasmids and Renilla-luciferase expressing vector (as internal control). After 24 hrs, cells were lysed using passive lysis buffer (Promega catalog #E1941). The lysates were cleared by centrifugation and its […] volume was mixed with […] of luciferase substrate solution for luminescence recording which was followed by addition of […] of Stop-glo solution (Promega catalog #E1910) with an additional luminescence reading. Both readings were detected by using GloMax 20/20 Luminometer (Promega), and the final value for each sample was the ratio of their two respective readings. […]

G9a = G9a (Homo sapiens, UniProt Q96KQ7); test: G9a fluorescence polarization enzymatic activity assay; assay type: biochemical; details: increasing concentrations
Method: For the small molecule screen, compounds were obtained from the collection maintained at the Grand Israel National Center for Personalized Medicine, consisting of molecules purchased from commercial vendors. Labelled RNA (10 nM) was incubated with recombinant Igf2bp1 protein (400 nM) in FAM-RNA buffer (10 mM Tris pH 8.0, 75 mM KCl, 0.5 mM EDTA, 1 mM DTT, 0.0188 U/μL RNAsin, 0.0005 μg/mL heparin, 0.0001 μg/μL tRNA, 0.01% Triton X-100, 3 mM MgCl2, 0.05% IGEPAL) at room temperature for 15 min. […] of this reaction mix was aliquoted with GNF WDII (USA) into wells of 1536 well plates, with a final concentration of […] compound or DMSO. The plates were spun down and read in a BMG Pherastar FS (Germany) plate reader plate reader, in FP mode with a 485/520/520 polarization filter, calibrated to 35 mP for free fluorescein with similar total intensity as experimental samples. The G9a FP assay was based on using an S-adenosylhomocysteine (SAH)-FITC probe and antibody to SAH to produce a high FP signal when the antibody binds to SAH-FITC. Unlabeled SAH produced by incubation of G9a enzyme with S-adenosylmethionine (SAM) and peptide substrate competes for the antibody and results in a low FP signal. 100% activity means that G9a is fully active and therefore a low FP signal is observed (SAH is produced).

H1299 cells [5] = test: Cytotoxicity and cell viability, H1299 cells; assay type: cell-based, human; parameters: Cell viability: dose or concentration left out as unconfirmed
La binding to Bcl2 RNA = La binding to Bcl2 RNA (Homo sapiens, UniProt P05455); test: FP counter assay, La binding to Bcl2 RNA
Sequence of La binding to Bcl2 RNA (P05455 whole entry): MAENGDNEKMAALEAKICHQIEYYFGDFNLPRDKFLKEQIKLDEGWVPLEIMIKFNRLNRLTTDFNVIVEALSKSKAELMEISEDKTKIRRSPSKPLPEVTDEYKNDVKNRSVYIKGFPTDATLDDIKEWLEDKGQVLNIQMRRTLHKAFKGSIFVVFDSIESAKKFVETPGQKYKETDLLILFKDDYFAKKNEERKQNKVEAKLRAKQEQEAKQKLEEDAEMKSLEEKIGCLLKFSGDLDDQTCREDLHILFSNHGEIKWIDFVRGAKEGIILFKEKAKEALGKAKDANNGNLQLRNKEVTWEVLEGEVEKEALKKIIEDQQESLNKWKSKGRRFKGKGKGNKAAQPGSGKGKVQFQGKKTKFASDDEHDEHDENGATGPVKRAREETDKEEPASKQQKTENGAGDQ

T1 sequence (Q9NZI8 whole entry): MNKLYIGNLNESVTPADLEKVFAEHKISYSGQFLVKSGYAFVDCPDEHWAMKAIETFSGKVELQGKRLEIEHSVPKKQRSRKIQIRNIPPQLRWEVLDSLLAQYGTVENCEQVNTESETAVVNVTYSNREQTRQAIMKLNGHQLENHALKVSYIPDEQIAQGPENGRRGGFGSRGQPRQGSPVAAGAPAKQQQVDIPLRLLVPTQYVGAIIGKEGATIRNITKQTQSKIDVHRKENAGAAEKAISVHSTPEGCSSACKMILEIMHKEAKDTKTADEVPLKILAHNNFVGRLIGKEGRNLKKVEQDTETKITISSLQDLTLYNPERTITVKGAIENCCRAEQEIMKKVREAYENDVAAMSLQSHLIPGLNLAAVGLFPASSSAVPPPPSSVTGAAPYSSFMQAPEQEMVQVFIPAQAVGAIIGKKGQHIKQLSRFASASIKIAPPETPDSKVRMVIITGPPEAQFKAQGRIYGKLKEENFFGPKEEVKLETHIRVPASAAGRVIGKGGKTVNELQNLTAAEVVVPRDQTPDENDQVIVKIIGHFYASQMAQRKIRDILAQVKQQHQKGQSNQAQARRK
Sequence of G9a (Q96KQ7 whole entry, species assumed): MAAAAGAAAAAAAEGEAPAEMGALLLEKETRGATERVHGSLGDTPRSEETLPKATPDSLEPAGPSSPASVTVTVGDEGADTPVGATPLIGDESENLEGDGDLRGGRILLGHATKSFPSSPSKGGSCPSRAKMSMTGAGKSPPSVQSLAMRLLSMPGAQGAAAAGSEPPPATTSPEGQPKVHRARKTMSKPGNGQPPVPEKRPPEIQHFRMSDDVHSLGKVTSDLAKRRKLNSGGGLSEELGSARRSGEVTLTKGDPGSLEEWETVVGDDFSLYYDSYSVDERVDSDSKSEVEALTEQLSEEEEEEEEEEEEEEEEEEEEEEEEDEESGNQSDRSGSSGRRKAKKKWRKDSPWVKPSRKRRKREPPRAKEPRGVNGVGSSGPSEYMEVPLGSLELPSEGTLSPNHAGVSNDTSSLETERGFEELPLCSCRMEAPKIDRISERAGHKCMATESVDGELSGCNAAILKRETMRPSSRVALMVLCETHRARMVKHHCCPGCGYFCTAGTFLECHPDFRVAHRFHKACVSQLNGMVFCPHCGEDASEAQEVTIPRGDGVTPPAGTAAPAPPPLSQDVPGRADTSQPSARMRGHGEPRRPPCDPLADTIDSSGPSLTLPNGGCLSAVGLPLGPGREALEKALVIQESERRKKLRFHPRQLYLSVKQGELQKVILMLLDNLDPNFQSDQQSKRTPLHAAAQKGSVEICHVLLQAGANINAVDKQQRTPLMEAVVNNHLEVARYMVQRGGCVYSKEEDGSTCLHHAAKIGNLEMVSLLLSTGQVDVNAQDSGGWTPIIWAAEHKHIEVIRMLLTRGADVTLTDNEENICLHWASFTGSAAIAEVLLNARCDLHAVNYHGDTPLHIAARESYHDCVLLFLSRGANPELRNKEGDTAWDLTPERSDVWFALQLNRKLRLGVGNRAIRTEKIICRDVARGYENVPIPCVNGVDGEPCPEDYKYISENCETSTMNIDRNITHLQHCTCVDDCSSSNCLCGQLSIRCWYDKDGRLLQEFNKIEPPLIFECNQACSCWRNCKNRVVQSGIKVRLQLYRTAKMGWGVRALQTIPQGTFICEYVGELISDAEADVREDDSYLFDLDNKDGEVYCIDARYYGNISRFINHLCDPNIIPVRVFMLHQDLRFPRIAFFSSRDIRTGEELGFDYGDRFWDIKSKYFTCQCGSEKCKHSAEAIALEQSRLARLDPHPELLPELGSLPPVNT

pIC50 [2]: ~4.52 and 4.44 to 4.82 | Effect on control RBP (La) binding to its target (Bcl2 RNA) (La binding to Bcl2 RNA; FP): almost no effect | pIC50 (La binding to Bcl2 RNA; FP control, n=3, read-out: IC50 for inhibition of La binding to Bcl2 RNA): < 4.00
SMILES: O=C(c1ccc(Cn2cnnn2)cc1)N1CCCC(Nc2ccc3c(c2)OCO3)C1 (stereo not drawn) [Compound 7773]
Inhibition of wound healing (HEK293 cells; HEK293, 5 mM 7773): discernible inhibition | Inhibition of wound healing (HEK293 cells; HEK293, 20 mM 7773): strongly inhibited | Kras protein expression [1]: dose-dependent reduction | Inhibition of wound healing (H1299 cells [3]; H1299, 5 mM 7773): discernible inhibition | Inhibition of wound healing (H1299 cells [3]; H1299, 20 mM 7773): strongly inhibited | Split-luciferase luminescence [4]: significantly reduced luminescence | Inhibition of G9a enzymatic activity (G9a): almost no effect; also recorded: does not inhibit | Cytotoxicity (H1299 cells [5]; H1299, 20, 10 or 5 mM 7773, 48 hours): virtually no effect | Cell viability (H1299 cells [5]; H1299, 7773, 48 hours): does not affect
